# System: epithelial cells and mesenchymal cells (hair follicle germ)
# Test: co-culture of epithelial cells and mesenchymal cells in culture solution with dispersed additive; formation of hair shaft-like structure in hair follicle germ
# Type: cell-based, C57BL/6 mouse
# Settings: for formation of hair follicle germ having a hair shaft-like structure: up to day 8 of culture
# Procedure: A dorsal skin tissue was collected from a C57BL/6 mouse embryo at embryonic day 18, and was subjected to dispase treatment by a partially modified version of a method reported by […]. (Koh-ei Toyoshima et al. Nature Communications, 3, 784, 2012) at 4° C. under the shaking condition of 30 rpm for 1 hour to separate the epithelial layer and mesenchymal layer of the skin tissue. After that, the epithelial layer was treated with 100 U/mL collagenase for 1 hour and 20 minutes and further treated with trypsin for 10 minutes to isolate epithelial cells. In addition, the mesenchymal layer was treated with 100 U/mL collagenase for 1 hour and 20 minutes to isolate mesenchymal cells.
# In example 1-1, the epithelial cells and the mesenchymal cells were co-cultured using a culture solution containing laminin, entactin, and type IV collagen. First, DMEM/F12 medium (Advanced Dulbecco's Modified Eagle Medi um/Ham's F-12, GIBCO® containing 1% GLUTAMAX® Supplement (L-glutamine supplement in […], GIBCO® and 0.2% NORMOCIN® (antimicrobial agent, INVIVOGEN®) was prepared as the culture solution.
# Then, the epithelial cells and the mesenchymal cells in such amounts as to achieve a cell density of 5×10^3 cells/mL each (such amounts as to achieve a total cell density of 1×10^4 cells/mL) were suspended in the culture solution, and MATRIGEL® (MATRIGEL® Basement Membrane Matrix, CORNING®) in such an amount as to achieve a concentration of 1 v/v % was further added to prepare a cell suspension.
# The Matrigel product used contained 10.6 mg/mL (protein amount measured by the Lowry method) of a soluble basement membrane matrix extracted from an Engelbreth-Holm-Swarm (EHS) mouse tumor, and a compositional ratio in the basement membrane matrix was as follows: 56% of laminin, 8% of entactin, and 31% of type IV collagen.
# 100 μL of the cell suspension was placed in each well of a 96-well plate (Prime surface (trademark), Sumitomo Bakelite Co., Ltd.) to inoculate the epithelial cells and the mesenchymal cells. […]
substance,measurement,setting,value
laminin,formation of hair shaft-like structure in hair follicle germ,"1 v/v % of product at inoculation, day 8 of culture (examples 5-1, 5-2, 5-3, 6)",had no hair shaft-like structure formed therein
same,formation of hair follicle germ having a hair shaft-like structure,example C1-1: 5 v/v % of product (39 to 41 μg/mL laminin),a hair follicle germ having a hair shaft-like structure was not formed
same,formation of hair follicle germ having a hair shaft-like structure,example C1-2: 10 v/v % of product (78 to 82 μg/mL laminin),a hair follicle germ having a hair shaft-like structure was not formed

# Source: patent publication US12655387B2, “Hair follicle primordia and method for producing same” (National University Corporation Yokohama National University, priority 2019, dated 2026)
